Results from the NIST ThermoML archive (doi:10.1021/je400529k).

Legend:
[1] = xn = mol fraction of the nth substance listed; settings: 101 kPa, Liquid; for viscosity: Capillary tube (Ostwald / Ubbelohde) method; for mass density: Vibrating tube method
[2] = refractive index (Na D-line) (dimensionless); xn = mol fraction of the nth substance listed; settings: 101 kPa, Liquid, Standard Abbe refractometry

C1C[C@@H]2[C@H]3CC[C@H](C3)[C@@H]2C1 [exo-tetrahydrodicyclopentadiene] + C1CCCCC1
Settings | mass density, [1] [kg/m3] | refractive index, [2] | viscosity, [1] [mPa·s]
293.15 K, x1 = 0.0998 | 799.53 | 1.4357 | 1.13
293.15 K, x1 = 0.2006 | 819.11 | 1.4426 | 1.296
293.15 K, x1 = 0.3003 | 837.1 | 1.4495 | 1.462
293.15 K, x1 = 0.3996 | 853.82 | 1.4564 | 1.633
293.15 K, x1 = 0.4987 | 869.42 | 1.4624 | 1.814
293.15 K, x1 = 0.6005 | 884.43 | 1.4683 | 2.016
293.15 K, x1 = 0.7002 | 898.3 | 1.4732 | 2.231
293.15 K, x1 = 0.8008 | 911.5 | 1.4781 | 2.463
293.15 K, x1 = 0.9 | 923.87 | 1.4829 | 2.72
293.15 K, x1 = 1 | 935.72 | 1.4874 | 2.992
298.15 K, x1 = 0.0998 | 794.92 | – | 1.032
298.15 K, x1 = 0.2006 | 814.56 | – | 1.18
298.15 K, x1 = 0.3003 | 832.65 | – | 1.327
298.15 K, x1 = 0.3996 | 849.45 | – | 1.481
298.15 K, x1 = 0.4987 | 865.15 | – | 1.645
298.15 K, x1 = 0.6005 | 880.23 | – | 1.828
298.15 K, x1 = 0.7002 | 894.2 | – | 2.024
298.15 K, x1 = 0.8008 | 907.48 | – | 2.236
298.15 K, x1 = 0.9 | 919.92 | – | 2.466
298.15 K, x1 = 1 | 931.84 | – | 2.71
303.15 K, x1 = 0.0998 | 790.27 | 1.4305 | 0.948
303.15 K, x1 = 0.2006 | 809.99 | 1.4373 | 1.08
303.15 K, x1 = 0.3003 | 828.19 | 1.4449 | 1.212
303.15 K, x1 = 0.3996 | 845.07 | 1.4512 | 1.351
303.15 K, x1 = 0.4987 | 860.86 | 1.4582 | 1.5
303.15 K, x1 = 0.6005 | 876.06 | 1.4633 | 1.668
303.15 K, x1 = 0.7002 | 890.08 | 1.4689 | 1.846
303.15 K, x1 = 0.8008 | 903.43 | 1.4739 | 2.037
303.15 K, x1 = 0.9 | 915.95 | 1.4789 | 2.248
303.15 K, x1 = 1 | 927.94 | 1.4831 | 2.467
308.15 K, x1 = 0.0998 | 785.6 | – | 0.874
308.15 K, x1 = 0.2006 | 805.41 | – | 0.993
308.15 K, x1 = 0.3003 | 823.69 | – | 1.113
308.15 K, x1 = 0.3996 | 840.68 | – | 1.239
308.15 K, x1 = 0.4987 | 856.56 | – | 1.375
308.15 K, x1 = 0.6005 | 871.85 | – | 1.528
308.15 K, x1 = 0.7002 | 885.97 | – | 1.691
308.15 K, x1 = 0.8008 | 899.4 | – | 1.866
308.15 K, x1 = 0.9 | 911.98 | – | 2.056
308.15 K, x1 = 1 | 924.02 | – | 2.255
313.15 K, x1 = 0.0998 | 780.9 | 1.4238 | 0.808
313.15 K, x1 = 0.2006 | 800.82 | 1.4319 | 0.917
313.15 K, x1 = 0.3003 | 819.19 | 1.439 | 1.026
313.15 K, x1 = 0.3996 | 836.28 | 1.4456 | 1.141
313.15 K, x1 = 0.4987 | 852.26 | 1.453 | 1.267
313.15 K, x1 = 0.6005 | 867.63 | 1.4583 | 1.407
313.15 K, x1 = 0.7002 | 881.85 | 1.4642 | 1.555
313.15 K, x1 = 0.8008 | 895.35 | 1.4689 | 1.715
313.15 K, x1 = 0.9 | 907.1 | 1.4737 | 1.888
313.15 K, x1 = 1 | 920.11 | 1.4786 | 2.069
318.15 K, x1 = 0.0998 | – | – | 0.751
318.15 K, x1 = 0.2006 | – | – | 0.848
318.15 K, x1 = 0.3003 | – | – | 0.949
318.15 K, x1 = 0.3996 | – | – | 1.055
318.15 K, x1 = 0.4987 | – | – | 1.169
318.15 K, x1 = 0.6005 | – | – | 1.298
318.15 K, x1 = 0.7002 | – | – | 1.435
318.15 K, x1 = 0.8008 | – | – | 1.581
318.15 K, x1 = 0.9 | – | – | 1.741
318.15 K, x1 = 1 | – | – | 1.907

CCC1CCCCC1 [ethylcyclohexane] + C1C[C@@H]2[C@H]3CC[C@H](C3)[C@@H]2C1
Settings | mass density, [1] [kg/m3] | refractive index, [2] | viscosity, [1] [mPa·s]
293.15 K, x2 = 0 | 788.02 | 1.4319 | 0.845
293.15 K, x2 = 0.0997 | 803.52 | 1.4378 | 0.941
293.15 K, x2 = 0.2006 | 818.96 | 1.4437 | 1.052
293.15 K, x2 = 0.3001 | 834.08 | 1.4494 | 1.189
293.15 K, x2 = 0.4003 | 849.15 | 1.4551 | 1.344
293.15 K, x2 = 0.5001 | 863.99 | 1.4605 | 1.514
293.15 K, x2 = 0.6011 | 878.81 | 1.4667 | 1.726
293.15 K, x2 = 0.7 | 893.21 | 1.4717 | 1.965
293.15 K, x2 = 0.8001 | 907.54 | 1.4769 | 2.251
293.15 K, x2 = 0.8996 | 921.66 | 1.4824 | 2.593
298.15 K, x2 = 0 | 784.01 | – | 0.791
298.15 K, x2 = 0.0997 | 799.47 | – | 0.878
298.15 K, x2 = 0.2006 | 814.95 | – | 0.979
298.15 K, x2 = 0.3001 | 830.07 | – | 1.104
298.15 K, x2 = 0.4003 | 845.18 | – | 1.243
298.15 K, x2 = 0.5001 | 860.01 | – | 1.396
298.15 K, x2 = 0.6011 | 874.85 | – | 1.586
298.15 K, x2 = 0.7 | 889.26 | – | 1.8
298.15 K, x2 = 0.8001 | 903.61 | – | 2.055
298.15 K, x2 = 0.8996 | 917.75 | – | 2.358
303.15 K, x2 = 0 | 779.98 | 1.4276 | 0.743
303.15 K, x2 = 0.0997 | 795.44 | 1.4334 | 0.822
303.15 K, x2 = 0.2006 | 810.94 | 1.4389 | 0.914
303.15 K, x2 = 0.3001 | 826.06 | 1.4446 | 1.028
303.15 K, x2 = 0.4003 | 841.18 | 1.4506 | 1.155
303.15 K, x2 = 0.5001 | 856.03 | 1.4559 | 1.293
303.15 K, x2 = 0.6011 | 870.9 | 1.4617 | 1.464
303.15 K, x2 = 0.7 | 885.3 | 1.4674 | 1.656
303.15 K, x2 = 0.8001 | 899.67 | 1.4724 | 1.884
303.15 K, x2 = 0.8996 | 913.82 | 1.4776 | 2.155
308.15 K, x2 = 0 | 775.93 | – | 0.7
308.15 K, x2 = 0.0997 | 791.4 | – | 0.772
308.15 K, x2 = 0.2006 | 806.91 | – | 0.856
308.15 K, x2 = 0.3001 | 822.04 | – | 0.96
308.15 K, x2 = 0.4003 | 837.18 | – | 1.076
308.15 K, x2 = 0.5001 | 852.03 | – | 1.202
308.15 K, x2 = 0.6011 | 866.92 | – | 1.356
308.15 K, x2 = 0.7 | 881.34 | – | 1.53
308.15 K, x2 = 0.8001 | 895.72 | – | 1.735
308.15 K, x2 = 0.8996 | 909.89 | – | 1.976
313.15 K, x2 = 0 | 771.86 | 1.4225 | 0.661
313.15 K, x2 = 0.0997 | 787.34 | 1.4286 | 0.727
313.15 K, x2 = 0.2006 | 802.87 | 1.4343 | 0.804
313.15 K, x2 = 0.3001 | 818 | 1.4401 | 0.9
313.15 K, x2 = 0.4003 | 833.14 | 1.4458 | 1.005
313.15 K, x2 = 0.5001 | 848.02 | 1.4514 | 1.12
313.15 K, x2 = 0.6011 | 862.92 | 1.4572 | 1.261
313.15 K, x2 = 0.7 | 877.36 | 1.4625 | 1.417
313.15 K, x2 = 0.8001 | 891.76 | 1.4679 | 1.602
313.15 K, x2 = 0.8996 | 905.95 | 1.4732 | 1.82
318.15 K, x2 = 0 | 767.78 | – | 0.626
318.15 K, x2 = 0.0997 | 783.25 | – | 0.687
318.15 K, x2 = 0.2006 | 798.78 | – | 0.758
318.15 K, x2 = 0.3001 | 813.96 | – | 0.845
318.15 K, x2 = 0.4003 | 829.08 | – | 0.942
318.15 K, x2 = 0.5001 | 843.99 | – | 1.047
318.15 K, x2 = 0.6011 | 858.88 | – | 1.175
318.15 K, x2 = 0.7 | 873.35 | – | 1.317
318.15 K, x2 = 0.8001 | 887.8 | – | 1.485
318.15 K, x2 = 0.8996 | 901.99 | – | 1.682
